# Laboratory results reported in article PMC9658545, “From Nature to Synthetic Compounds: Novel 1(N),2,3 Trisubstituted-5-oxopyrrolidines Targeting Multiple Myeloma Cells” (International Journal of Molecular Sciences, 2022).
# Like-named read-outs stand apart in the source and are kept apart here.
# Experiments:
# [1] = test system: RPMI 8226 cells; assay: MTT assay of cell viability in RPMI 8226 cells; format: cell-based, Human; conditions: for profile in MTT and Trypan blue tests compared with racemate: enantiomers of 13, 10, 100 and 500 µM; for fold more active than the reference compound Hib-ester: after 24 h of treatment
# Description: RPMI 8226 cells were treated with different concentrations of all compounds (10, 100 and 500 µM) at 24 h. The concentrations have been chosen based on the results previously obtained with Hib-ester. MTT assay was performed to assess cell viability and calculate the IC50 (Table 1). For compounds not showing a significant reduction of cell viability at the concentration of 500 µM, the IC50 was not calculated, and they have been considered not effective. Untreated cells were used as control (CTRL).
# Human multiple myeloma RPMI 8226 cells were cultured in RPMI 1640 medium supplemented with 10% fetal bovine serum, 1% L-glutamine and 1% penicillin and streptomycin (Euroclone, Italy). Human glioblastoma U87-MG cells were cultured in DMEM low glucose supplemented with 10% fetal bovine serum, 1% L-glutamine and 1% penicillin and streptomycin (Euroclone, Italy). Cells were incubated in a humidified incubator at 37 °C and 5% CO2. A stock solution of all compounds in DMSO (50 mM) was prepared and then directly diluted in culture medium.
# Cells were seeded in 96-well plates at a density of 1 × 10^4 cells/well and were treated after 24 h with RA, AM or SU molecules. After 24 h, a 3-(4,5-dimethylthiazol-2-yl)-2,5-diphenyltetrazolium bromide (MTT, Sigma Aldrich, United States) solution was added to each well to reach a final concentration of 0.5 mg/mL. After 4 h of incubation (4 h for RPMI 8226 cells), formazan salt was solubilized in ethanol and absorbance was measured at 570 nm in a microplate reader (BMG-Labtech, Ortenberg, Germany).
# [2] = molecular target: T1, proteasome (Homo sapiens, UniProt P28074); assay: Proteasome activity assay on lysates of treated RPMI 8226 cells (Suc-LLVY-AMC substrate); format: cell-based; conditions: for IC50: RPMI 8226 cells treated 24 h, read-out: IC50 (proteasome inhibition); for proteasome inhibition activity: after 24 h, 10, 100 and 500 µM
# T1 construct: endogenous in cells; host or cells: RPMI 8226 (human multiple myeloma)
# T1 sequence (P28074 60-263): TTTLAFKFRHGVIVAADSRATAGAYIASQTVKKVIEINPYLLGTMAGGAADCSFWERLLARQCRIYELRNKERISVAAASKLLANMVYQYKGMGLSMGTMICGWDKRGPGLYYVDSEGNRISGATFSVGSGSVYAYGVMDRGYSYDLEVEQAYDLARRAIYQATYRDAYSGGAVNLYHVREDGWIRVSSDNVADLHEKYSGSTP
# Description: RPMI 8226 cells treated with Bortezomib (BTZ) 1, 5 and 10 nM were used as positive control for all experiments (Figure S2, Supplementary Information).
# Cells not used in the Trypan blue assay were lysed to assess proteasome activity. Briefly, cells were resuspended in a lysis buffer (50 mM Hepes Ph 7.5, 150 mM NaCl, 10% glycerol, 1% Triton X-100, 1.5 mM MgCl2, 5 mM EGTA) and were mechanically lysed with a vortex. Obtained protein lysates were centrifuged at 13,500 RPM for 15 min and were quantified using the Bradford method. Some 40 µg of proteins were then loaded in black-96-well plate to perform the proteasome activity assay. In each well, 7.6 mg/mL proteasome substrate (N-Succinyl-Leu-Leu-Val-Tyr-7-Amido-4-Methylcoumarin, Sigma Aldrich, United States) and proteasome buffer (250 mM Hepes pH 7.5, 5 mM EDTA pH 8.0, 0.5% NP-40, 0.01% SDS) were added to the proteins. Fluorescence was measured after 2 h of incubation in a microplate reader (excitation 380 nm, emission 460 nm; BMG-Labtech, Ortenberg, Germany).
# RPMI 8226 cells were treated with different concentrations (10, 100 and 500 µM) of each compound and, after 24 hours, proteasome activity assay was performed.
# Supplementary Figure S1. Proteasome activity of RPMI 8226 cells treated with (2R,3R/2S,3S)-13, 14, 16 and 20. Proteasome activity was evaluated in cells treated for 24 hours with different concentrations (10, 100 and 500 µM) of compounds. The graphs represent the mean proteasome activity ± SD, compared to untreated controls, arbitrarily set to 100%. ** p < 0.01 vs CTRL.
# RPMI 8226 cells treated with BTZ 1, 5 and 10 nM were used as positive control for all experiments. […]
# The graphs represent the mean cell number ± SD of viable and dead cells. ** p < 0.01 vs CTRL; C) Proteasome activity of RPMI 8226 cells treated with BTZ. Proteasome activity was evaluated in cells treated for 24 hours with different concentrations (1, 5 and 10 nM) of BTZ. The graphs represent the mean proteasome activity ± SD, compared to untreated controls, arbitrarily set to 100%. ** p < […]
# [3] = test system: RPMI 8226 cells; assay: MTT assay of cell viability in RPMI 8226 cells; format: cell-based, Human; conditions: for change of MTT efficacy over time: 24, 48 and 72 h; for IC50: Homo sapiens
# [4] = test system: human multiple myeloma RPMI 8226 cells; set-up: method as in PMID 31323932; conditions: at 24 h; cited from earlier work
# [5] = set-up: method as in PMID 31323932; conditions: cited from earlier work
# [6] = test system: proteasome; set-up: method as in PMID 31323932; conditions: cited from earlier work
# [7] = set-up: method as in PMID 31323932; conditions: cited from earlier work; remark: listed apart in the source
# [8] = test system: RPMI 8226 cells; assay: Trypan blue vital count assay (viable and dead cells); format: cell-based, Human; conditions: 100 µM
# Description: RPMI 8226 cells treated with Bortezomib (BTZ) 1, 5 and 10 nM were used as positive control for all experiments (Figure S2, Supplementary Information). Cells were seeded in 6-well plates at a density of 2.5 × 10^5 cells/well and were treated after 24 h with different concentrations of RA molecules. After 24 h of treatment, cells were collected and stained with Trypan blue vital dye (Sigma Aldrich, Burlington, VT, USA). Viable and dead cells were then counted in a hemocytometer under a light microscope.
# [9] = 24 h, MTT assay, concentrations 10, 100 and 500 µM, n.e.* = compounds not effective at 500 µM
# [10] = Homo sapiens, RPMI-8226, 24 h, MTT assay, concentrations 10, 100 and 500 µM, n.e.* = compounds not effective at 500 µM, read-out: IC50 μM RPMI8226
# [11] = Homo sapiens, RPMI-8226, 24 h of treatment, read-out: IC50 (MTT)
# [12] = 24 h, MTT assay, concentrations 10, 100 and 500 µM, n.e.* = compounds not effective at 500 µM, read-out: IC50 μM RPMI8226
# [13] = 24 h of treatment, read-out: IC50 (MTT)
molecule,measurement,setting,value
"CC(C)CN1C(=O)CC(C(=O)O)C1c1ccccc1 [(2R,3R/2S,3S)-9, 1-Isobutyl-5-oxo-2-phenylpyrrolidine 3-Carboxylic Acid]",IC50 μM RPMI8226,[1]; [9],n.e.*
same,melting point,,120.6 to 122.7 °C
"2-(3,5-Dimethoxyphenyl)-1-isobutyl-5-oxopyrrolidine-3-carboxylic Acid [(2R,3R/2S,3S)-11]",IC50 μM RPMI8226,[1]; [9],n.e.*
"COC(=O)C1CC(=O)N(C)C1 (racemic) [(S/R)-7, Methyl 1-Methyl-5-oxopyrrolidine-3-carboxylate]",IC50 μM RPMI8226,[1]; [9],n.e.*
"O=C(O)C1CC(=O)N(Cc2ccccc2)C1c1ccccc1 (single isomer, unassigned; (+)) [(+)-(2S,3S)-13]",profile in MTT and Trypan blue tests compared with racemate,[1],less antiproliferative properties
same,IC50,[2],189 ± 17 µM
"1-Benzyl-2-(3,5-dimethoxyphenyl)-5-oxopyrrolidine-3-carboxylic Acid [(2R,3R/2S,3S)-15]",IC50 μM RPMI8226,[1]; [9],n.e.*
COC(=O)C1CNC(=O)C1 (racemic) [(S/R)-6],IC50 μM RPMI8226,[1]; [9],n.e.*
"COC(=O)[C@@H]1CC(=O)O[C@@H]1c1ccccc1 [(2R,3R/2S,3S)-2, Methyl (2S,3R)-5-Oxo-2phenyltetrahydrofuran-3-Carboxylate]",IC50 μM RPMI8226,[1]; [9],n.e.*
CCCCN1CC(C(=O)O)CC1=O (racemic) [(S/R)-4],IC50 μM RPMI8226,[1]; [9],n.e.*
"COC(=O)C1CCC(=O)N(Cc2ccccc2)C1c1ccccc1 [(2R,3R/2S,3S)-20, Methyl 1-Benzyl-6-oxo-2-phenylpiperidine-3-carboxylate]",IC50,[1]; [10],152 ± 29 µM
same,IC50,[1]; [11],< 350 µM
same,fold more active than the reference compound Hib-ester,[1],at least 6 fold
same,change of MTT efficacy over time,[3],did not show a significant increase in efficacy over time
"Methyl 2-(3,5-Dimethoxyphenyl)-1-isobutyl-5-oxopyrrolidine-3-carboxylate [(2R,3R/2S,3S)-12]",IC50,[1]; [12],263 ± 41 µM
same,IC50,[1]; [13],< 350 µM
same,fold more active than the reference compound Hib-ester,[1],at least 6 fold
"O=C(O)C1CC(=O)N(Cc2ccccc2)C1c1ccccc1 (single isomer, unassigned; (-)) [(−)-(2R,3R)-13]",profile in MTT and Trypan blue tests compared with racemate,[1],profile comparable with racemate
same,IC50,[2],90 ± 8 µM
same,activity relative to the opposite enantiomer in the biological assays,[2]; enantiomers of 13,twofold more active
"O=C(O)C1CCC(=O)N(Cc2ccccc2)C1c1ccccc1 [(2R,3R/2S,3S)-19, 1-Benzyl-6-oxo-2-phenylpiperidine 3-Carboxylic Acid]",IC50 μM RPMI8226,[1]; [9],n.e.*
COC(=O)C1OC(=O)CC1(O)C(=O)OC (centres unmarked) [Hib-ester],IC50 (antiproliferative properties),[4],450 µg/mL
same,effect on migration and cell invasion,[5],reduce migration and cell invasion
same,proteasome inhibition,[6],inhibit proteasome
same,neurotoxic effects,[7],without neurotoxic effects
"COC(=O)C1CC(=O)N(Cc2ccccc2)C1c1ccccc1 [(2R,3R/2S,3S)-14, Methyl 1-Benzyl-5-oxo-2-phenylpyrrolidine-3-carboxylate]",IC50,[1]; [10],61 ± 12 µM
same,IC50,[1]; [11],< 350 µM
same,fold more active than the reference compound Hib-ester,[1],34 fold
same,fold more active than the reference compound Hib-ester,[1]; listed as 14,at least 6 fold
same,cell death (Trypan blue vital count),[8],significant increase in cell death
same,proteasome inhibition at the lowest evaluated concentration,"[2]; 10 µM, 24 h",significant inhibition
same,proteasome inhibition activity,[2],most effective
same,change of MTT efficacy over time,[3],time-dependent effect
same,IC50,"[3]; RPMI-8226, 48 h",43 µM
same,IC50,"[3]; RPMI-8226, 72 h",34 µM
"COC(=O)C1CC(=O)NC1C(=O)OC [(2R,3R/2S,3S)-8, Dimethyl 5-Oxopyrolidine-2,3-dicarboxylate]",IC50 μM RPMI8226,[1]; [9],n.e.*
"COC(=O)C1CCC(=O)N(CC(C)C)C1c1ccccc1 [(2R,3R/2S,3S)-18, Methyl 1-Isobutyl-6-oxo-2-phenylpiperidine-3-carboxylate]",IC50,[1]; [10],301 ± 29 µM
same,IC50,[1]; [11],< 350 µM
same,fold more active than the reference compound Hib-ester,[1],at least 6 fold
"O=C(O)C1CC(=O)N(Cc2ccccc2)C1c1ccccc1 (racemic) [(2R,3R/2S,3S)-13, 1-Benzyl-5-oxo-2-phenylpyrrolidine 3-Carboxylic Acid]",IC50,[1]; [10],169 ± 21 µM
same,IC50,[1]; [11],< 350 µM
same,fold more active than the reference compound Hib-ester,[1],at least 6 fold
same,cell death (Trypan blue vital count),[8],significant increase in cell death
same,proteasome inhibition activity,[2],most effective
same,change of MTT efficacy over time,[3],time-dependent effect
same,IC50,"[3]; RPMI-8226, 48 h",85 µM
same,IC50,"[3]; RPMI-8226, 72 h",15 µM
same,fold more active than Hib-ester in reducing RPMI 8226 cells growth,[3]; after 24 and 72 h of treatment,twelve-fold more active
"COC(=O)[C@@H]1CCC(=O)N1 [(S)-3, (S)-Methyl-5-oxopyrrolidine-2-carboxylate]",IC50 μM RPMI8226,[1]; [9],n.e.*
"Methyl 1-Benzyl-2-(3,5-dimethoxyphenyl)-5-oxopyrrolidine-3-carboxylate [(2R,3R/2S,3S)-16]",IC50,[1]; [12],138 ± 27 µM
same,IC50,[1]; [13],< 350 µM
same,fold more active than the reference compound Hib-ester,[1],at least 6 fold
same,change of MTT efficacy over time,[3],did not show a significant increase in efficacy over time
"COC(=O)C1CC(=O)N(CC(C)C)C1c1ccccc1 [(2R,3R/2S,3S)-10, Methyl 1-Isobutyl-5-oxo-2-phenylpyrrolidine-3-carboxylate]",IC50,[1]; [10],265 ± 49 µM
same,IC50,[1]; [11],< 350 µM
same,fold more active than the reference compound Hib-ester,[1],at least 6 fold
"CC(C)CN1C(=O)CCC(C(=O)O)C1c1ccccc1 [(2R,3R/2S,3S)-17, 1-Isobutyl-6-oxo-2-phenylpiperidine 3-Carboxylic Acid]",IC50 μM RPMI8226,[1]; [9],n.e.*
"O=C1CC(C(=O)O)C(c2ccccc2)O1 [(2R,3R/2S,3S)-1]",IC50 μM RPMI8226,[1]; [9],n.e.*
"CCCCN1CC(C(=O)OC)CC1=O (racemic) [(S/R)-5, Methyl 1-Butyl-5-oxopyrrolidine-3-carboxylate]",IC50 μM RPMI8226,[1]; [9],n.e.*
